Data published in patent publication US9439432B2, “Phenylisoxazoline-based compound having herbicidal activity and use thereof” (MOGHU RESEARCH CENTER LTD, priority 2011, dated 2016).

Key:
Type in all cases: in vivo
Cotton [1] = experiment: Pre-emergence treatment, phytotoxicity to cotton; conditions: 500 g/ha, 4 weeks after spraying, scale 0 to 10 (0: no effects, 10: complete death)
How it was run: (§1)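 Test materials are dissolved in acetone and mixed with an equal amount of 0.2% (v/v) Tween 20 solution. This solution is sprayed pre-emergence at 500, 250, 125 or 62.5 g/ha onto freshly seeded, irrigated soil one day after watering. Effects are rated 0–10 four weeks later.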

Soybean [2] = experiment: Post-emergence treatment, phytotoxicity to soybean; conditions: post-emergence (about 3 leaf stage), 1,000 g/ha, 4 weeks after spraying, scale 0 to 10 (0: no effects, 10: complete death)
How it was run: (§2)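 Seed weeds and crops into 1:1 sandy loam/mixed bed soil; grow about two weeks to roughly 3 leaves; track-spray 125–1,000 g/ha at 300 L/ha from acetone/0.2% Tween 20; hold in greenhouse (25–30 °C day, 15–25 °C night); rate efficacy and crop injury 0–10 after four weeks.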

Corn [3] = experiment: Post-emergence treatment, phytotoxicity to corn; conditions: post-emergence (about 3 leaf stage), 1,000 g/ha, 4 weeks after spraying, scale 0 to 10 (0: no effects, 10: complete death)
How it was run: as §2

Echinochloa crusgalli [4] = experiment: Pre-emergence treatment, herbicidal efficacy on barnyardgrass; conditions: 4 weeks after spraying
How it was run: as §1

Wheat [5] = experiment: Pre-emergence treatment, phytotoxicity to wheat; conditions: 500 g/ha, 4 weeks after spraying, scale 0 to 10 (0: no effects, 10: complete death)
How it was run: as §1

Rice [6] = experiment: Post-emergence treatment, phytotoxicity to rice; conditions: post-emergence (about 3 leaf stage), 1,000 g/ha, 4 weeks after spraying, scale 0 to 10 (0: no effects, 10: complete death)
How it was run: as §2

Alopecurus myosuroides [7] = experiment: Pre-emergence treatment, herbicidal efficacy on blackgrass; conditions: 4 weeks after spraying, scale 0 to 10
How it was run: as §1

Soybean [8] = experiment: Pre-emergence treatment, phytotoxicity to soybean; conditions: 500 g/ha, 4 weeks after spraying, scale 0 to 10 (0: no effects, 10: complete death)
How it was run: as §1

Echinochloa crusgalli [9] = experiment: Post-emergence treatment, herbicidal efficacy on barnyardgrass; conditions: 4 weeks after spraying, scale 0 to 10
How it was run: as §2

Poa annua [10] = experiment: Pre-emergence treatment, herbicidal efficacy on annual bluegrass; conditions: 4 weeks after spraying, scale 0 to 10
How it was run: as §1

Digitaria sanguinalis [11] = experiment: Post-emergence treatment, herbicidal efficacy on large crabgrass; conditions: 4 weeks after spraying, scale 0 to 10
How it was run: as §2

Alopecurus myosuroides [12] = experiment: Post-emergence treatment, herbicidal efficacy on blackgrass; conditions: 4 weeks after spraying, scale 0 to 10
How it was run: as §2

Wheat [13] = experiment: Post-emergence treatment, phytotoxicity to wheat; conditions: post-emergence (about 3 leaf stage), 1,000 g/ha, 4 weeks after spraying, scale 0 to 10 (0: no effects, 10: complete death)
How it was run: as §2

Rice [14] = experiment: Pre-emergence treatment, phytotoxicity to rice; conditions: 500 g/ha, 4 weeks after spraying, scale 0 to 10 (0: no effects, 10: complete death)
How it was run: as §1

[15] = system: barnyardgrass, large crabgrass, and annual bluegrass; experiment: Post-emergence treatment, grass weeds overall; conditions: 250 g/ha
Method: (§3) A rectangular plastic pot having a surface area of 300 cm^2 was filled with sandy loam soil and mixed bed soil which were mixed at a ratio of 1:1, and then, barnyardrass (Echinochloa crusgalli), large crabgrass (Digitaria sanguinalis), blackgrass (Alopecurus myosuroides), and annual bluegrass (Poa annua), which are grass weeds, were seeded thereto. In a pot that was prepared as described above, seeds of corn, soybean, cotton, wheat, and rice were seeded. The pots were irrigated, and one day after, chemicals were sprayed thereto. The spraying was performed by using a track sprayer (R&D Sprayer, USA) equipped with a Teejet 8002 (Spraying Systems Co., USA) nozzle, and a spraying amount was adjusted at 300 L/ha. A spraying solution was prepared by dissolving test materials or references in acetone and adding the same amount of 0.2%(v/v) tween 20 aqueous solution thereto. Application rates were 500, 250, 125, and 62.5 g/ha. The pots were placed in a greenhouse in which during day, the temperature was maintained at a temperature of 25 to 30° C., and during night, the temperature was maintained at a temperature of 15 to 25° C., and the pots were periodically irrigated. Four weeks after the spraying the test materials or References, effects and phytotoxicity of the respective weeds and crops were evaluated in a scale of 0 to 10 (0: no effects, 10: complete death), and results thereof are shown in Table 4 below.
Pots containing crops and weeds were prepared in the same manner as in Example 7, and then, in the second week in which crops and weeds entered into about 3 leaf stage, the test materials and the references were sprayed thereto in the same manner as described above. The rates were 1,000, 500, 250, and 125 g/ha. Four weeks after the spraying of the test materials or the references, herbicidal efficacy and phytotoxicity to the respective weeds and crops were evaluated in a scale of 0 to 10 (0: no effects, 10: complete death).

Corn [16] = experiment: Pre-emergence treatment, phytotoxicity to corn; conditions: 500 g/ha, 4 weeks after spraying, scale 0 to 10 (0: no effects, 10: complete death)
How it was run: as §1

Poa annua [17] = experiment: Post-emergence treatment, herbicidal efficacy on annual bluegrass; conditions: 4 weeks after spraying, scale 0 to 10
How it was run: as §2

[18] = system: grass weeds including barnyardrass, large crabgrass, and annual bluegrass; experiment: Pre-emergence treatment, grass weeds overall; conditions: relative to reference compounds
Method: as §3

Digitaria sanguinalis [19] = experiment: Pre-emergence treatment, herbicidal efficacy on large crabgrass; conditions: 4 weeks after spraying, scale 0 to 10
How it was run: as §1

Cotton [20] = experiment: Post-emergence treatment, phytotoxicity to cotton; conditions: post-emergence (about 3 leaf stage), 1,000 g/ha, 4 weeks after spraying, scale 0 to 10 (0: no effects, 10: complete death)
How it was run: as §2

[21] = 500 g/ha, scale 0 to 10 (0: no effects, 10: complete death)

Cc1ccccc1C1=NOC(C)(COCc2c(F)cccc2F)C1 (stereo not shown) [Compound 1, 5-((2,6-difluorobenzyloxy)methyl)-5-methyl-3-o-tolyl-4,5-dihydroisoxazole]
Phytotoxicity, Cotton (Cotton [1]): 0
Phytotoxicity, Soybean (Soybean [2]): 2
Phytotoxicity, Corn (Corn [3]): 2
Herbicidal efficacy, Echinochloa crusgalli (Echinochloa crusgalli [4]; 62.5 g/ha, scale 0 to 10): 10
Herbicidal efficacy, Echinochloa crusgalli (Echinochloa crusgalli [4]; 125 g/ha, scale 0 to 10): 10
Herbicidal efficacy, Echinochloa crusgalli (Echinochloa crusgalli [4]; 250 g/ha, scale 0 to 10): 10
Herbicidal efficacy, Echinochloa crusgalli (Echinochloa crusgalli [4]; [21]): 10
Phytotoxicity, Wheat (Wheat [5]): 0
Phytotoxicity, Rice (Rice [6]): 0
Herbicidal efficacy, Alopecurus myosuroides (Alopecurus myosuroides [7]; 62.5 g/ha): 4
Herbicidal efficacy, Alopecurus myosuroides (Alopecurus myosuroides [7]; 125 g/ha): 6
Herbicidal efficacy, Alopecurus myosuroides (Alopecurus myosuroides [7]; 250 g/ha): 8
Herbicidal efficacy, Alopecurus myosuroides (Alopecurus myosuroides [7]; 500 g/ha): 9
Phytotoxicity, Soybean (Soybean [8]): 0
Herbicidal efficacy, Echinochloa crusgalli (Echinochloa crusgalli [9]; post-emergence, 125 g/ha): 7
Herbicidal efficacy, Echinochloa crusgalli (Echinochloa crusgalli [9]; post-emergence, 250 g/ha): 9
Herbicidal efficacy, Echinochloa crusgalli (Echinochloa crusgalli [9]; post-emergence, 500 g/ha): 10
Herbicidal efficacy, Echinochloa crusgalli (Echinochloa crusgalli [9]; post-emergence, 1,000 g/ha): 10
Herbicidal efficacy, Poa annua (Poa annua [10]; 62.5 g/ha): 9
Herbicidal efficacy, Poa annua (Poa annua [10]; 125 g/ha): 10
Herbicidal efficacy, Poa annua (Poa annua [10]; 250 g/ha): 10
Herbicidal efficacy, Poa annua (Poa annua [10]; 500 g/ha): 10
Herbicidal efficacy, Digitaria sanguinalis (Digitaria sanguinalis [11]; post-emergence, 125 g/ha): 6
Herbicidal efficacy, Digitaria sanguinalis (Digitaria sanguinalis [11]; post-emergence, 250 g/ha): 9
Herbicidal efficacy, Digitaria sanguinalis (Digitaria sanguinalis [11]; post-emergence, 500 g/ha): 10
Herbicidal efficacy, Digitaria sanguinalis (Digitaria sanguinalis [11]; post-emergence, 1,000 g/ha): 10
Herbicidal efficacy, Alopecurus myosuroides (Alopecurus myosuroides [12]; post-emergence, 125 g/ha): 2
Herbicidal efficacy, Alopecurus myosuroides (Alopecurus myosuroides [12]; post-emergence, 250 g/ha): 8
Herbicidal efficacy, Alopecurus myosuroides (Alopecurus myosuroides [12]; post-emergence, 500 g/ha): 7
Herbicidal efficacy, Alopecurus myosuroides (Alopecurus myosuroides [12]; post-emergence, 1,000 g/ha): 9
Phytotoxicity, Wheat (Wheat [13]): 0
Phytotoxicity, Rice (Rice [14]): 0
suppression of barnyardgrass, large crabgrass, and annual bluegrass [15]: greatly suppressed
Phytotoxicity, Corn (Corn [16]): 1
Herbicidal efficacy, Poa annua (Poa annua [17]; post-emergence, 125 g/ha): 5
Herbicidal efficacy, Poa annua (Poa annua [17]; post-emergence, 250 g/ha): 8
Herbicidal efficacy, Poa annua (Poa annua [17]; post-emergence, 500 g/ha): 9
Herbicidal efficacy, Poa annua (Poa annua [17]; post-emergence, 1,000 g/ha): 10
efficacy stronger than the References [18]: about 8 times
Herbicidal efficacy, Digitaria sanguinalis (Digitaria sanguinalis [19]; 62.5 g/ha): 9
Herbicidal efficacy, Digitaria sanguinalis (Digitaria sanguinalis [19]; 125 g/ha): 10
Herbicidal efficacy, Digitaria sanguinalis (Digitaria sanguinalis [19]; 250 g/ha): 10
Herbicidal efficacy, Digitaria sanguinalis (Digitaria sanguinalis [19]; 500 g/ha): 10
Phytotoxicity, Cotton (Cotton [20]): 2

CC1(COCc2c(F)cccc2F)CC(c2ccccc2F)=NO1 (stereo not shown) [Compound 4, 5-((2,6-difluorobenzyloxy)methyl)-3-(2-fluorophenyl)-5-methyl-4,5-dihydroisoxazole]
Phytotoxicity, Cotton (Cotton [1]): 1
Phytotoxicity, Soybean (Soybean [2]): 1
Phytotoxicity, Corn (Corn [3]): 4
Herbicidal efficacy, Echinochloa crusgalli (Echinochloa crusgalli [4]; 62.5 g/ha, scale 0 to 10): 7
Herbicidal efficacy, Echinochloa crusgalli (Echinochloa crusgalli [4]; 125 g/ha, scale 0 to 10): 10
Herbicidal efficacy, Echinochloa crusgalli (Echinochloa crusgalli [4]; 250 g/ha, scale 0 to 10): 10
Herbicidal efficacy, Echinochloa crusgalli (Echinochloa crusgalli [4]; [21]): 10
Phytotoxicity, Wheat (Wheat [5]): 0
Phytotoxicity, Rice (Rice [6]): 2
Herbicidal efficacy, Alopecurus myosuroides (Alopecurus myosuroides [7]; 62.5 g/ha): 3
Herbicidal efficacy, Alopecurus myosuroides (Alopecurus myosuroides [7]; 125 g/ha): 4
Herbicidal efficacy, Alopecurus myosuroides (Alopecurus myosuroides [7]; 250 g/ha): 8
Herbicidal efficacy, Alopecurus myosuroides (Alopecurus myosuroides [7]; 500 g/ha): 10
Phytotoxicity, Soybean (Soybean [8]): 0
Herbicidal efficacy, Echinochloa crusgalli (Echinochloa crusgalli [9]; post-emergence, 125 g/ha): 5
Herbicidal efficacy, Echinochloa crusgalli (Echinochloa crusgalli [9]; post-emergence, 250 g/ha): 8
Herbicidal efficacy, Echinochloa crusgalli (Echinochloa crusgalli [9]; post-emergence, 500 g/ha): 10
Herbicidal efficacy, Echinochloa crusgalli (Echinochloa crusgalli [9]; post-emergence, 1,000 g/ha): 10
Herbicidal efficacy, Poa annua (Poa annua [10]; 62.5 g/ha): 9
Herbicidal efficacy, Poa annua (Poa annua [10]; 125 g/ha): 10
Herbicidal efficacy, Poa annua (Poa annua [10]; 250 g/ha): 10
Herbicidal efficacy, Poa annua (Poa annua [10]; 500 g/ha): 10
Herbicidal efficacy, Digitaria sanguinalis (Digitaria sanguinalis [11]; post-emergence, 125 g/ha): 6
Herbicidal efficacy, Digitaria sanguinalis (Digitaria sanguinalis [11]; post-emergence, 250 g/ha): 6
Herbicidal efficacy, Digitaria sanguinalis (Digitaria sanguinalis [11]; post-emergence, 500 g/ha): 10
Herbicidal efficacy, Digitaria sanguinalis (Digitaria sanguinalis [11]; post-emergence, 1,000 g/ha): 10
Herbicidal efficacy, Alopecurus myosuroides (Alopecurus myosuroides [12]; post-emergence, 125 g/ha): 0
Herbicidal efficacy, Alopecurus myosuroides (Alopecurus myosuroides [12]; post-emergence, 250 g/ha): 4
Herbicidal efficacy, Alopecurus myosuroides (Alopecurus myosuroides [12]; post-emergence, 500 g/ha): 9
Herbicidal efficacy, Alopecurus myosuroides (Alopecurus myosuroides [12]; post-emergence, 1,000 g/ha): 10
Phytotoxicity, Wheat (Wheat [13]): 1
Phytotoxicity, Rice (Rice [14]): 0
suppression of barnyardgrass, large crabgrass, and annual bluegrass [15]: greatly suppressed
Phytotoxicity, Corn (Corn [16]): 4
Herbicidal efficacy, Poa annua (Poa annua [17]; post-emergence, 125 g/ha): 6
Herbicidal efficacy, Poa annua (Poa annua [17]; post-emergence, 250 g/ha): 7
Herbicidal efficacy, Poa annua (Poa annua [17]; post-emergence, 500 g/ha): 10
Herbicidal efficacy, Poa annua (Poa annua [17]; post-emergence, 1,000 g/ha): 10
efficacy stronger than the References [18]: about 4 times
Herbicidal efficacy, Digitaria sanguinalis (Digitaria sanguinalis [19]; 62.5 g/ha): 10
Herbicidal efficacy, Digitaria sanguinalis (Digitaria sanguinalis [19]; 125 g/ha): 10
Herbicidal efficacy, Digitaria sanguinalis (Digitaria sanguinalis [19]; 250 g/ha): 10
Herbicidal efficacy, Digitaria sanguinalis (Digitaria sanguinalis [19]; 500 g/ha): 10
Phytotoxicity, Cotton (Cotton [20]): 0
